Patent US20030134803A1, “Use of sulfonated compounds as a barrier contraceptive” (The Regents of the University of California, priority 2002, published 2003)

Key:
[1] = tested on: zona pellucida of immature oocytes; experiment: sperm-zona pellucida binding assay (ZBA); format: cell-based, cynomolgus macaque
sperm = sperm percent motility and progression scoring; format: cell-based, cynomolgus macaque; details: for effect on percentage of motile sperm and sperm progression: zona binding studies, 1.5 mg/ml, pre- or post-capacitation treatment
Method: Four adult male cynomolgus macaques which were caged individually at the California Regional Primate Research Center (CRPRC) in compliance with the Federal Animal Welfare Act and the NIH Guidelines for Care and Use of Laboratory Animals. The animals were maintained on a 12L:12D light cycle at 25-27° C. and were given a diet of Purina monkey chow and water ad libitum. Semen samples were collected by electroejaculation, e.g., as described in Sarason et al., The use of nonmetal electrodes in ejaculation of restrained but unanesthetized macaques, (1991) J. Med. Primatol., 20:122-125, into 15 ml centrifuge tubes containing 5 ml of Hepes-buffered BWW maintained at room temperature (RT). After 15-30 min, the coagulum was removed, the semen samples were further diluted with an additional 5 ml of Hepes-buffered BWW containing 3 mg/ml bovine serum albumin (BSA) and then concentrated into a 1 ml pellet by centrifugation at 300×g for 10 minutes. LSA (previously dissolved in hepes-buffered BWW salts) was added to half of the pellet to give a final concentration of 1.5 mg LSA/ml of sperm. An equal volume of hepes-buffered BWW salts was added to the other half of the pellet. Both aliquots were incubated at room temperature for 40 minutes and then washed and capacitated, e.g., as described in Tollner T L, et al., Soybean trypsin inhibitor as a probe for the acrosome reaction in motile cynomolgus macaque sperm (2000) Zygote 8:127-137. Briefly, sperm were centrifuged through 3.5 ml of 80% Percoll for 25 minutes at 400 g. The supernatant containing Percoll and any remaining sperm was removed and the sperm pellet was resuspended in bicarbonate-buffered BWW, e.g., as described in Overstreet et al., Penetration of human spermatozoa into the human zona pellucida and the zona-free hamster egg: a study of fertile donors and infertile patients, (1980), Fertil. Steril., 33:534-542; and, Overstreet et al., In vitro capacitation of human spermatozoa after passage through a column of cervical mucus, (1980) Fert. Steril., 34:604-606, containing 30 mg/ml of BSA. Sperm were washed two more times by centrifugation at 300 g for 10 minutes and dilution in this medium. […] Following activation, 200 sperm per treatment were scored for percent motility at 200× magnification with phase-contrast optics using a BH-2 series Olympus microscope. Progression was assessed with a 0-4 rating system (0=no progressive sperm; 1=1-25% of motile sperm have forward (space gaining) progressive motility; 2=26-50% of motile sperm have forward progressive motility; 3=51-75% of motile sperm have forward progressive motility; 4=76-100% of motile sperm have forward progressive motility).

[2] = oral; cited from earlier work
mature oocytes = experiment: in vitro fertilization (IVF) with treated sperm; format: cell-based, cynomolgus macaque; details: 1.5 mg/ml
[3] = 1.5 mg/ml added post-capacitation (PC, Post-C), after activation
[4] = 1.5 mg/ml added pre-capacitation (Pre-C, pre-wash PW), prior to washing through Percoll and overnight incubation

Question: What does the source list for Fucoidan [reference compound]?
Answer: inhibition of sperm-zona binding as compared to controls [1, 3]: 91.5%; inhibition of sperm-zona binding as compared to controls [1, 4]: 36%; effect on percentage of motile sperm and sperm progression (sperm): No motility changes were observed

Question: Which results are given for Lignosulfonic acid [LSA]?
Answer: LD50 [2]: > 40000 mg/kg; inhibition of sperm-zona binding as compared to controls [1, 3]: 92.5%; inhibition of sperm-zona binding as compared to controls [1, 4]: 82.5%; fertilization in IVF trials (mature oocytes; post-capacitation (Post-C, PC) treatment): blocked fertilization; fertilization in IVF trials (mature oocytes; pre-capacitation (prewash, PW, Pre-C) treatment): blocked fertilization; effect on sperm motility in IVF (sperm; IVF sperm preparations): no difference between treatments on sperm motility; percentage of sperm developing hyperactivated motility patterns consistent with capacitation (sperm; LSA-treated and control sperm): > 75%; effect on percentage of motile sperm and sperm progression (sperm): Neither the percentage of motile sperm or sperm progression were effected

Question: With polyanetholesulfonic acid [PASA] as the substance, how does the “binding of treated sperm to the zona pellucida of immature oocytes (in words)” value ([1]; treatment post-capacitation (PC) or pre-wash (PW), FIG. 3) read?
Answer: inhibited their binding to the zona pellucida
